Test results from patent publication US12544384B2, “Antibiotic conjugates” (priority 2018, dated 2026).
Converted amounts (≈) assume the structure as drawn. Read-outs that look alike come from different tables or passages of the source.

Legend:
[1] = test system: A. baumannii ATCC 17978; assay: MIC, antimicrobial susceptibility assay in iron depleted media; type: cell-based, Acinetobacter baumannii; details: for Antibacterial activity (in words): A. baumannii ATCC 17978, low amount of ADC-1; for MIC: Acinetobacter baumannii, ATCC17978, A. baumannii ATCC 17978, small amount of chromosomal ADC-1, iron depleted media, average of three measurements
From the text: (§1) For this purpose, A. baumannii ATCC 17978, which produces a small amount of the chromosomally-encoded enzyme, and the same strain that produces a large amount of ADC-1 from the pNT255 vector were used (Table 1).

[2] = test system: A. baumannii ATCC 17978 pNT255; assay: MIC, antimicrobial susceptibility assay, strain with pNT255 vector; type: cell-based; details: Acinetobacter baumannii, ATCC17978, read-out: Activity (MIC)
From the text: as §1

[3] = test system: A. baumannii ATCC 17978 pNT225: ADC-1; assay: MIC, antimicrobial susceptibility assay, strain with plasmid-encoded ADC-1 β-lactamase; type: cell-based, Acinetobacter baumannii; details: for MIC: Acinetobacter baumannii, ATCC17978, read-out: Activity (MIC)
From the text: as §1

[4] = test system: A. baumannii ATCC 17961; assay: MIC against clinical isolate; type: cell-based, Acinetobacter baumannii; details: for MIC: Acinetobacter baumannii; for Antibacterial activity (in words): clinical isolate ATCC 17961
Method: (§2) Subsequently, the activities of the disclosed compounds were evaluated against four clinical isolates of A. baumannii (ATCC 17961, ATCC BAA1793, ATCC BAA1797 and ATTC BAA1800). All four A. baumannii isolates were resistant to compounds 3, 22, 23, and 27. Strain ATCC 17961 was susceptible to both 26 and 1, indicating lack of or low β-lactamase content and/or activity.

[5] = test system: A. baumannii ATCC BAA 1793; assay: MIC against clinical isolate; type: cell-based, Acinetobacter baumannii; details: for MIC: Acinetobacter baumannii; for Antibacterial activity (in words): clinical isolate ATCC BAA1793
Method: as §2

[6] = test system: A. baumannii ATCC BAA 1797; assay: MIC against clinical isolate; type: cell-based, Acinetobacter baumannii; details: for MIC: Acinetobacter baumannii; for Antibacterial activity (in words): clinical isolate ATCC BAA1797
Method: as §2

[7] = test system: A. baumannii ATCC BAA 1800; assay: MIC against clinical isolate; type: cell-based, Acinetobacter baumannii; details: for MIC: Acinetobacter baumannii; for Antibacterial activity (in words): clinical isolate ATCC BAA1800
Method: as §2

[8] = test system: E. coli DC0; assay: MIC against other Gram-negative bacteria; details: for Antibacterial activity (in words): Escherichia coli DC0; for MIC: Escherichia coli, DC0, read-out: Activity (MIC)
Method: (§3) This plasmid was then introduced by electroporation into A. baumannii ATCC 17978 for MIC measurements. MIC analyses were performed using iron depleted media as described previously (Ghosh, J. Med. Chem., 2017, 60, 4577-4583).

[9] = test system: P. aeruginosa KW799/wt; assay: MIC against other Gram-negative bacteria; details: for Antibacterial activity (in words): Pseudomonas aeruginosa KW799
Method: as §3

[10] = test system: Mycobacterium tuberculosis (Mtb); details: background statement; cited from earlier work
[11] = test system: ADC-1 β-lactamase; assay: Enzymatic hydrolysis by ADC-1, LC/MS; type: biochemical, A. baumannii; details: 20 μM compound, 20 μM ADC-1, 50 mM sodium phosphate pH 7.4, room temperature, 40 min
Method: With the final siderophore-cephalosporin-oxazolidinone conjugate (1) along with the separate cephalosporin and oxazolidinone conjugates (26 and 27) as well as the corresponding cephalosporin (23), oxazolidinone (3) and eperezolid (17) available, enzymatic and anti-bacterial assays were performed to test the susceptibility of conjugate (1) to the hydrolytic activity of β-lactamases from Gram-negative bacteria. Thus, assays were conducted to evaluate whether the oxazolidinone could be efficiently released from the final siderophore-cephalosporin-oxazolidinone conjugate (1) as a result of cephalosporin hydrolysis by a β-lactamase. For this purpose, one of the ADC-type β-lactamases (ADC-1) was chosen as ADC enzymes are intrinsic to A. baumannii, an important clinical pathogen, and are capable of hydrolyzing cephalosporin antibiotics.
The ADC-1 β-lactamase was expressed and purified as previously described (Bhattacharya et al., Acta Crystallogr., Sect. D: Biol. Crystallogr., 2014, 70, 760-771). Conjugate 1 (10 mM in DMSO) was diluted 5-fold in DMSO and then another 10-fold in 50 mM sodium phosphate, pH 7.4 to give a 200 μM solution with 10% DMSO. Subsequently, a 60 μL reaction was prepared consisting of 20 μM of 1 (6 μL of a 200 μM solution) and 20 μM ADC-1 β-lactamse (8.1 μL of 148 μM enzyme) in 50 mM sodium phosphate, pH 7.4 (the final concentration of DMSO was 1%). […]

[12] = ATCC17961, A. baumannii ATCC 17961, read-out: Activity (MIC)
[13] = BAA1793, A. baumannii ATCC BAA 1793, read-out: Activity (MIC)
[14] = BAA1797, A. baumannii ATCC BAA 1797, read-out: Activity (MIC)
[15] = BAA1800, A. baumannii ATCC BAA 1800, read-out: Activity (MIC)
[16] = Pseudomonas aeruginosa, KW799/WT, read-out: Activity (MIC)
[17] = ATCC17961, read-out: Activity (MIC)
[18] = BAA1793, read-out: Activity (MIC)
[19] = BAA1797, read-out: Activity (MIC)
[20] = BAA1800, read-out: Activity (MIC)

| Compound | Antibacterial activity (in words) [1] | MIC [1] [µM] | MIC [2] [µM] | MIC [3] [µM] | Antibacterial activity (in words) [4] | Antibacterial activity (in words) [5] | Antibacterial activity (in words) [6] | Antibacterial activity (in words) [7] | Antibacterial activity (in words) [8] | MIC [8] [µM] | Antibacterial activity (in words) [9] | MIC [9, 16] [µM] | MIC [4, 17] [µM] | MIC [5, 18] [µM] | MIC [6, 19] [µM] | MIC [7, 20] [µM] | further results |
| --- | --- | --- | --- | --- | --- | --- | --- | --- | --- | --- | --- | --- | --- | --- | --- | --- | --- |
| CC(=O)OCC1=C(C(=O)O)N2C(=O)[C@@H](NC(=O)C(NC(=O)CN(CCCCNC(=O)c3cccc(O)c3O)C(=O)c3cccc(O)c3O)c3ccccc3)[C@H]2SC1 (stereo partly drawn) [Compound 26, (6R,7R)-3-(Acetoxymethyl)-7-(2-(2-(N-(4-(2,3-dihydroxybenzamido)butyl)-2,3-dihydroxybenzamido)acetamido)-2-phenylacetamido)-8-oxo-5-thia-1-azabicyclo[4.2.0]oct-2-ene-2-carboxylic acid] | remarkably active | 0.4 (≈ 0.322 µg/mL) | 0.4 (≈ 0.322 µg/mL) | > 50 | susceptible | detectable activity | resistant | detectable activity | remarkably active | < 0.025 | remarkably active | 0.4 (≈ 0.322 µg/mL) |  |  |  |  | Antibacterial activity (in words) ([3]; A. baumannii with plasmid-encoded β-lactamase (pNT255:adc1)): highly resistant; MIC [4, 12]: 0.8 µM (≈ 0.645 µg/mL); MIC [5, 13]: 12.5 µM (≈ 10.1 µg/mL); MIC [6, 14]: > 50 µM; MIC [7, 15]: 25 µM (≈ 20.1 µg/mL); MIC ([9]; vs P. aeruginosa KW799/wt): 0.4 |
| CC(=O)NC[C@H]1CN(c2ccc(N3CCN(C(=O)CO)CC3)c(F)c2)C(=O)O1 [Compound 17, eperezolid, reference compound] | not active | > 50 | > 50 | > 50 |  |  |  |  |  |  |  |  |  |  |  |  |  |
| C[C@@H]1CC[C@H]2[C@@H](C)C(=O)O[C@@H]3O[C@@]4(C)CC[C@@H]1[C@]32OO4 [artemisinin] |  |  |  |  |  |  |  |  |  |  |  |  |  |  |  |  | Anti-tuberculosis activity (in words) [10]: no anti-tuberculosis activity |
| CC(=O)NC[C@H]1CN(c2ccc(N3CCN(C(=O)CNC(=O)CN(CCCCNC(=O)c4cccc(O)c4O)C(=O)c4cccc(O)c4O)CC3)c(F)c2)C(=O)O1 [Compound 27, (S)—N-(2-((2-(4-(4-(5-(Acetamidomethyl)-2-oxooxazolidin-3-yl)-2-fluorophenyl)piperazin-1-yl)-2-oxoethyl)amino)-2-oxoethyl)-N-(4-(2,3-dihydroxybenzamido)butyl)-2,3-dihydroxybenzamide] | not active | > 50 | > 50 | > 50 | resistant | resistant | resistant | resistant | not active | > 50 | not active | > 50 | > 50 | > 50 | > 50 | > 50 |  |
| CC(=O)NC[C@H]1CN(c2ccc(N3CCN(C(=O)CNC(=O)OCC4=C(C(=O)O)N5C(=O)[C@@H](NC(=O)C(NC(=O)CN(CCCCNC(=O)c6cccc(O)c6O)C(=O)c6cccc(O)c6O)c6ccccc6)[C@H]5SC4)CC3)c(F)c2)C(=O)O1 (stereo partly drawn) [Compound 1, (6R,7R)-3-((((2-(4-(4-((S)-5-(Acetamidomethyl)-2-oxooxazolidin-3-yl)-2-fluorophenyl)piperazin-1-yl)-2-oxoethyl)carbamoyl)oxy)methyl)-7-(2-(2-(N-(4-(2,3-dihydroxybenzamido)butyl)-2,3-dihydroxybenzamido)acetamido)-2-phenylacetamido)-8-oxo-5-thia-1-azabicyclo[4.2.0]oct-2-ene-2-carboxylic acid] | similarly potent activity | 0.4 (≈ 0.473 µg/mL) | 0.4 (≈ 0.473 µg/mL) | 6 (≈ 7.1 µg/mL) | susceptible | very active | very active | very active | remarkably active | < 0.025 | remarkably active | 0.2 to 0.4 (≈ 0.237 to 0.473 µg/mL) | 0.8 (≈ 0.947 µg/mL) | 0.8 to 1.6 (≈ 0.947 to 1.89 µg/mL) | 6.25 (≈ 7.39 µg/mL) | 0.8 (≈ 0.947 µg/mL) | Decrease of MIC compared to the siderophore-cephalosporin ([3]; A. baumannii with plasmid-encoded β-lactamase, versus 26): at least 8 fold; Hydrolysis by purified ADC-1 and release of oxazolidinone [11]: rapid and complete hydrolysis and release of the oxazolidinone |
| CC(=O)NC[C@H]1CN(c2ccc(N3CCN(C(=O)CN)CC3)c(F)c2)C(=O)O1 [Compound 3, (S)—N-((3-(3-Fluoro-4-(4-glycylpiperazin-1-yl)phenyl)-2-oxooxazolidin-5-yl)methyl)acetamide] | not active | > 500 | > 500 | > 500 | resistant | resistant | resistant | resistant | not active | > 50 | not active | > 50 | > 50 | > 50 | > 50 | > 50 |  |
| CC(=O)NC[C@H]1CN(c2ccc(N3CCN(C(=O)CNC(=O)OCC4=C(C(=O)O)N5C(=O)[C@@H](NC(=O)C(N)c6ccccc6)[C@H]5SC4)CC3)c(F)c2)C(=O)O1 (stereo partly drawn) [Compound 22, (6R,7R)-3-((((2-(4-(4-((S)-5-(Acetamidomethyl)-2-oxooxazolidin-3-yl)-2-fluorophenyl)piperazin-1-yl)-2-oxoethyl)carbamoyl)oxy)methyl)-7-(2-amino-2-phenylacetamido)-8-oxo-5-thia-1-azabicyclo[4.2.0]oct-2-ene-2-carboxylic acid] | not active | > 50 | > 50 | > 50 | resistant | resistant | resistant | resistant | not active | > 50 | not active | > 50 |  |  |  |  | MIC [4, 12]: > 50 µM; MIC [5, 13]: > 50 µM; MIC [6, 14]: > 50 µM; MIC [7, 15]: > 50 µM |
